The test system of test [1] is Human Multiple Myeloma Cells (MM.1S). Description: Antiproliferative activity on MM.1S in the presence of beta adrenergic receptor antagonist (CGP 12177A or ICI 118,551). Type of test: cell-based.
In a further test the test system is beta 3 vs. beta 2. The following applies: Mol Phar 1994 46(2):357-63; cited from earlier work.
Test [2] deals with Human Multiple Myeloma Cells (MM.1S). Description: Anti-proliferation assay (ATPLite, 72 hours), MM.1S.
The subject of test [3] is Human Multiple Myeloma Cells (EJM). Description: Anti-proliferation assay (ATPLite, 72 hours), EJM. As to conditions: for Antiproliferative Activity: DEX μM r7-r15: 2.03, 0.675, 0.225, 0.075, 0.025, 0.00834, 0.00278, 0.00093, 0.
For a further test, the system named is MM.1S cells. Nature of the test: Annexin V / propidium iodide apoptosis assay, MM.1S. Type of test: cell-based, human. As to conditions: for induction of MM.1S cell apoptosis: 72 hours (FIG. 2). The method, then:
Effects on cell viability were determined by measuring the percent of cells that were annexin V positive (an early marker for apoptosis) and by measuring the percent of cells propidium iodide (PI) positive, an indicator that cellular membranes are compromised and a marker of cell death.

In test [4] the test system is Human Multiple Myeloma Cells (MM.1S).
The subject of another test is RPMI-8226 cells. The following applies: soft agar, three weeks. The method, then: The effect of BAR agonists on cells grown in soft agar was also determined. This approach allows the measurement of long term cell viability after single agent or combination treatment. […] Cells were washed and plated in soft agar. After three weeks colonies were counted to determine cell viability.

For test [5], the system named is multiple myeloma tumor cells from patients. Nature of the test: MTT cell viability assay, multiple myeloma patient tumor cells. As to conditions: Homo sapiens, 48 h, read-out: tumor cell viability.
Source text: Tumor cells were obtained via bone marrow aspirates and affinity selected using CD138-linked magnetic beads.
Test [6] has as its system RPMI-8226 multiple myeloma (MM) xenograft. As to conditions: Day 19; 10 mg/kg salmeterol, 0.5 mg/kg bortezomib, or both. The method, then:
Dexamethasone was administered by intraperitoneal (IP) injection daily for thirty-six treatments (QD×36). Bortezomib was injected intravenously (IV) every third day for six treatments (Q3D×6).
Group 1—Vehicle (90% PBS+10% EtOH)
Significant endpoints included mean tumor growth inhibition (TGI) or regression, animal weight loss, and potential toxicity. […] Animals were implanted with cancer cells harvested from tissue culture and allowed to establish tumors in SCID mice. Treatment initiated when the mean tumor volume reached 137 mm^3 in size.

Test [7] relates to Human Multiple Myeloma Cells (ANBL-6). Nature of the test: Anti-proliferation assay (ATPLite, 72 hours), ANBL-6.
Test [8] relates to Human Multiple Myeloma Cells (MM.1S) cultured in the presence of BAR agonist for one month. Nature of the test: Antiproliferative activity on MM.1S cultured one month in the presence of salmeterol or salbutamol. The following applies: MM.1S cultured in Salbutamol for one month (final 150 nM), DEX (μM): 2.0, 0.666, 0.23, 0.074, 0.024, 0.0082, 0.00274, 0.0009, 0. Type of test: cell-based. The source says:
A recurrent problem in cancer therapy is that prolonged exposure of tumor cells to chemotherapeutic agents can generate cells resistant to agents that initially have antiproliferative or cell killing activity. […] Cells cultured for one month in the presence of BAR agonist were washed to remove drug and put into 384 well plates for 9×9 dose matrix combination screening with BAR agonists and dexamethasone.

The test system of test [9] is human multiple myeloma cells (MM.1R). Description: Antiproliferative activity of salbutamol on MM.1R after transfection of siRNA. The following applies: 72 hours (FIG. 4). Type of test: cell-based. The method, then:
Specific gene silencing was greater than 60% as determined by real time PCR analysis 48 hours post-transfection. At 48 hours post-transfection, cells were exposed to the beta 2 receptor agonist salbutamol and incubated an additional 72 hours, and the compounds were assayed for antiproliferative activity.

Setting [10] is: Homo sapiens, MM1.S, read-out: percent inhibition of cell proliferation.
The mark [11] stands for this setting: Homo sapiens, Multiple myeloma cell, 72 h, read-out: percent inhibition of cell proliferation.
[12] abbreviates: Homo sapiens, MM1.S, 72 h, read-out: percent inhibition of cell proliferation.
[13] abbreviates: Homo sapiens, MM1.S, 72 h, read-out: percent inhibition (% I).
Setting [14] is: Homo sapiens, MM1.S, read-out: Antiproliferative Activity (inhibition of proliferation).
Setting [15] is: Homo sapiens, ANBL-6, 72 h, read-out: percent inhibition (% I).
Where [16] appears, read: Homo sapiens, ANBL-6, read-out: percent inhibition of cell proliferation.

Values joined by “and” are separate entries in the source; they are usually repeats but may differ in a detail not shown here. Equal values may be shown once. Read-outs that look alike come from different tables or passages of the source.

`CC(Cc1ccc(OCC(=O)O)cc1)NCC(O)c1cccc(Cl)c1` (stereo not drawn) [BRL37344, (4-(2-((2-(3-chlorophenyl)-2-hydroxyethyl)amino)propyl)phenoxy)acetic acid]: the inhibition at 0.01 µM was -8.2% in [1] (setting [10]) and 10% in test [2] (setting [10]). The inhibition at 0.02 µM in test [1] (setting [10]) is -12%; in [2] (setting [10]), 10%. In addition, the “selectivity for beta 3 vs. beta 2” value in the test with beta 3 vs. beta 2 was 76 fold. Also, the “single agent antiproliferative activity” value in [2] (MM.1S (Table 45)) is reported as “not very active”.
In the case of `CC(C)(C)NCC(O)c1cc(Cl)c(N)c(Cl)c1` (stereo not drawn) [Clenbuterol], in test [2] (setting [10]), the inhibition at 0.0006 µM is 66%; the inhibition at 0.01 µM was 78%; the inhibition at […] is 61% and 62% and 57%.
On to `CC(CCc1ccc(O)cc1)NCCc1ccc(O)c(O)c1` (stereo not drawn) [Dobutamine, dobutamine], for which the inhibition at […] in test [1] (Homo sapiens, MM1.S, in the presence of 0.91 μM ICI, 118,551, Dobutamine 0.063 μM, Dexamethasone (μM) by row: r8 0.15, r9 0.076, r10 0.038, r11 0.019, r12 0.0095, r13 0, read-out: percent inhibition of cell proliferation) was 2.2%; in test [1] (Homo sapiens, MM1.S, in the presence of 0.91 μM ICI, 118,551, Dobutamine 0.13 μM, Dexamethasone (μM) by row: r8 0.15, r9 0.076, r10 0.038, r11 0.019, r12 0.0095, r13 0, read-out: percent inhibition of cell proliferation) it was 2%; in test [1] (Homo sapiens, MM1.S, in the presence of 0.91 μM ICI, 118,551, Dobutamine 0.25 μM, Dexamethasone (μM) by row: r8 0.15, r9 0.076, r10 0.038, r11 0.019, r12 0.0095, r13 0, read-out: percent inhibition of cell proliferation) it was -5.4%; in [1] (Homo sapiens, MM1.S, in the presence of 0.91 μM ICI, 118,551, Dobutamine 0.51 μM, Dexamethasone (μM) by row: r8 0.15, r9 0.076, r10 0.038, r11 0.019, r12 0.0095, r13 0, read-out: percent inhibition of cell proliferation), -2.8%. Moreover, the inhibition at 1 µM in test [1] (Homo sapiens, MM1.S, in the presence of 0.91 μM ICI, 118,551, Dobutamine 1.0 μM, Dexamethasone (μM) by row: r8 0.15, r9 0.076, r10 0.038, r11 0.019, r12 0.0095, r13 0, read-out: percent inhibition of cell proliferation) was -1.8%; in test [2] (setting [10]) it was 28%. For the same molecule, the inhibition at 0.0316 µM is -2.3% in test [3] (setting [11]) and -2.04% in test [2] (setting [12]). In addition, the inhibition at 0.506 µM in test [3] (setting [11]) amounted to 21.5%; in [2] (setting [12]), 22.9%.
Regarding `Cc1ccc(OCC(O)C(C)NC(C)C)c2c1CCC2` (stereo not drawn) [ICI, 118,551], the “percent inhibition of cell proliferation” value in test [1] (in the presence of […] ICI, 118,551, Dobutamine 0 μM, Dexamethasone (μM) by row: r8 0.15, r9 0.076, r10 0.038, r11 0.019, r12 0.0095, r13 0 (ICI alone)) worked out at 1.9%.
On to `CCC(NC(C)C)C(O)c1ccc(O)c(O)c1` (stereo not drawn) [Isoetharine], for which the “Antiproliferative Activity” value in test [3] (Isoetharine 0.000158 μM) is on record as 7.35; in [3] (Isoetharine 0.000316 μM), 7.35; in test [3] (Isoetharine 0.00506 μM), 29.
Take `CC(C)C[C@H](NC(=O)[C@H](Cc1ccccc1)NC(=O)c1cnccn1)B(O)O` [bortezomib]: the “cells annexin V positive” value in the test on MM.1S cells (2 nM bortezomib, 72 hours (FIG. 3)) amounted to 50%. In test [4], the inhibition was 30.8% and 19.6%. For the same molecule, the “colony number per 10,000 cells plated” value was 39 colonies with RPMI-8226 cells (100 nM bortezomib for 5 hours) and 7 colonies with RPMI-8226 cells (200 nM bortezomib for 5 hours). Moreover, in [5], the viability at 0.002 µM came to 80%. Further, in [6], the “tumor growth inhibition (TGI)” value was found to be 38%.
Regarding `COc1ccc(CC(C)NCC(O)c2ccc(O)c(NC=O)c2)cc1` (stereo not drawn) [formoterol], in test [2] (setting [13]), the inhibition at 2.53 pM was found to be 18.9%, the inhibition at 5.06 pM is 23.8%, the inhibition at 10.1 pM stood at 40.8% and the inhibition at 20.2 pM was determined as 52.7%. In addition, in test [2] (setting [13]), the inhibition at 40.5 pM came to 54.7% and the inhibition at 81 pM turned out to be 65.9%. In [2] (setting [14]), the inhibition at 2.53 pM was found to be 22.4%, the inhibition at 5.06 pM was found to be 36.2%, the inhibition at 10.1 pM worked out at 40.7% and the inhibition at 20.2 pM was determined as 51%. In test [2] (setting [14]), the inhibition at 40.5 pM turned out to be 57.5% and the inhibition at 81 pM turned out to be 65.7%. In test [2] (Homo sapiens, MM1.S, read-out: inhibition of proliferation, single agent), the inhibition at 20.2 pM was 51%. In test [7] (setting [15]), the inhibition at 2.53 pM was 23.3%, the inhibition at 5.06 pM came out at 26.7%, the inhibition at 10.1 pM came out at 30% and the inhibition at 20.2 pM was determined as 39.9%. In addition, in [7] (setting [15]), the inhibition at 40.5 pM worked out at 48.8% and the inhibition at 81 pM came out at 55.4%.
On to `Nc1cccc2c1CN(C1CCC(=O)NC1=O)C2=O` (stereo not drawn) [lenalidomide], for which, in the test with MM.1S cells (1 μM lenalidomide), the “induction of MM.1S cell apoptosis” value was “negligible effects”. The “Antiproliferative Activity” value in test [7] (Salmeterol 0 μM (LEN alone), LEN μM r7-r15: 4.04, 2.02, 1.01, 0.505, 0.253, 0.126, 0.0632, 0.0316, 0) is 53.5 and 51.8 and 52.5 and 44.8 and 34.3 and 61.9 and 52.8 and 54.3.
For the molecule `CC(C)(C)NCC(O)c1ccc(O)c(CO)c1` (stereo not drawn) [salbutamol], the “percent inhibition of cell proliferation” value in test [8] (Salbutamol 0.00375 μM) is listed as −5.8%. For the same molecule, in [8] (Salbutamol 0.00625 μM), the “percent inhibition of cell proliferation” value turned out to be 4.6%. In test [8] (Salbutamol 0.0125 μM), the “percent inhibition of cell proliferation” value is reported as −1.9%. The “percent inhibition of cell proliferation” value in test [8] (Salbutamol 0.05 μM) is on record as 1.5%. Also, in test [8] (Salbutamol 0.1 μM), the “percent inhibition of cell proliferation” value was 11%. The “percent inhibition of cell proliferation” value in [8] (Salbutamol 0.2 μM) was determined as 6.8%. For the same molecule, in test [2] (setting [10]), the inhibition at 9.1 pM was 10%, the inhibition at 0.00375 µM turned out to be 15%, the inhibition at 0.00625 µM was 30% and the inhibition at 0.0125 µM stood at 39%. Further, in test [2] (setting [10]), the inhibition at 0.05 µM stood at 51%, the inhibition at 0.1 µM is 55% and the inhibition at 0.2 µM amounted to 58%. Also, in test [9] (MM.1R transfected with A2A receptor siRNA or control siRNA), the inhibition of proliferation is reported as 65-68%. For the same molecule, the Antiproliferative Activity in [9] (MM.1R transfected with two different siRNA targeting the beta 2 receptor) is given as 39-45%.
Take `COc1cc2c(cc1OC)-c1cc(=Nc3c(C)cc(C)cc3C)n(C)c(=O)n1CC2` [trequinsin, 2,3,6,7-tetrahydro-9,10-dimethoxy-3-methyl-2-((2,4,6-trimethylphenyl)imino)-4H-pyrimido(6,1-a)isoquinolin-4-one]: the “induction of MM.1S cell apoptosis” value in the test with MM.1S cells (2 μM trequinsin) is reported as “negligible effects”. Further, in [7] (setting [16]), the inhibition at 0.00464 µM worked out at 2.91%, the inhibition at 0.125 µM stood at 4.39% and the inhibition at 0.375 µM came out at 7.82%.

Source of the values: patent US20100009934A1, “BETA ADRENERGIC RECEPTOR AGONISTS FOR THE TREATMENT OF B-CELL PROLIFERATIVE DISORDERS” (CombinatoRx, Incorporated, priority 2008, published 2010).
